Reference: PubChem BioAssay AID232 (DTP/NCI, 2004)
Where “and” joins values, the source holds several entries; their conditions need not be identical. Equal values may be shown once. Inconclusive results and toxic doses are left out.

Test system: Gardner 6C3HED lymphosarcoma ip, C3AKF1 mice, survival T/C
Experiment: NCI In Vivo Anticancer Drug Screen. Data for tumor model Lymphosarcoma Gardner 6C3HED (intraperitoneal) in C3AKF1 (CHKRF1) mice
Settings: endpoint: survival time, mean or median, schedule: Q01DX010 (ip), vehicle: saline, higher = longer survival
Procedure: The antitumor activity of compounds was measured in mice bearing transplantable tumors. Survival or tumor size were measured and the results are expressed as the measurement made in the treated group (T) divided by the measurement made in the vehicle treated control group (C). The tumor model used in this assay is Lymphosarcoma Gardner 6C3HED (intraperitoneal) in C3AKF1 (CHKRF1) mice

## Nc1nc(SCc2ccccc2)c2[nH]cnc2n1
dose: 8.0 mg/kg/injection
  T/C: 95 % of control and 100 % of control
dose: 16.0 mg/kg/injection
  T/C: 95 % of control and 104 % of control
dose: 32.0 mg/kg/injection
  T/C: 90 % of control and 91 % of control and 104 % of control
dose: 64.0 mg/kg/injection
  T/C: 87 % of control and 100 % of control (2×)

## CC(=O)N(C)C
dose: 62.5 mg/kg/injection
  T/C: 86 % of control and 90 % of control
dose: 125.0 mg/kg/injection
  T/C: 90 % of control and 95 % of control
dose: 250.0 mg/kg/injection
  T/C: 95 % of control and 100 % of control
dose: 500.0 mg/kg/injection
  T/C: 100 % of control

## CCn1cnc2c(=S)nc[nH]c21
dose: 15.6 mg/kg/injection
  T/C: 91 % of control and 104 % of control
dose: 31.3 mg/kg/injection
  T/C: 87 % of control and 89 % of control and 104 % of control
dose: 62.5 mg/kg/injection
  T/C: 114 % of control
dose: 125.0 mg/kg/injection
  T/C: 87 % of control and 104 % of control

## c1ccc(CNc2ncnc3[nH]ncc23)cc1
dose: 8.0 mg/kg/injection
  T/C: 100 % of control and 119 % of control
dose: 16.0 mg/kg/injection
  T/C: 104 % of control and 105 % of control
dose: 32.0 mg/kg/injection
  T/C: 90 % of control and 95 % of control
dose: 64.0 mg/kg/injection
  T/C: 90 % of control and 95 % of control

## NC(=O)N(CCCl)N=O
dose: 0.5 mg/kg/injection
  T/C: 150 % of control and 204 % of control
dose: 1.0 mg/kg/injection
  T/C: 250 % of control and 254 % of control
dose: 4.0 mg/kg/injection
  T/C: 86 % of control

## O=C(Nc1ccc(C2=NCCN2)cc1)c1ccc(C(=O)Nc2ccc(C3=NCCN3)cc2)c([N+](=O)[O-])c1
dose: 6.0 mg/kg/injection
  T/C: 218 % of control and 272 % of control
dose: 8.0 mg/kg/injection
  T/C: 300 % of control
dose: 12.0 mg/kg/injection
  T/C: 268 % of control and 300 % of control
dose: 18.0 mg/kg/injection
  T/C: 163 % of control and 259 % of control

## OCC1OC(n2cnc3c(Cl)ncnc32)C(O)C1O (stereo not drawn)
dose: 62.5 mg/kg/injection
  T/C: 95 % of control
dose: 125.0 mg/kg/injection
  T/C: 90 % of control
dose: 250.0 mg/kg/injection
  T/C: 90 % of control
dose: 500.0 mg/kg/injection
  T/C: 90 % of control and 100 % of control

## CN(N=O)C(=O)NC(C=O)C(O)C(O)C(O)CO (stereo not drawn)
dose: 40.0 mg/kg/injection
  T/C: 300 % of control
dose: 60.0 mg/kg/injection
  T/C: 300 % of control
dose: 135.0 mg/kg/injection
  T/C: 95 % of control and 100 % of control

## Cc1cc(N(CCCl)CCCl)ccc1N=Nc1ccccc1C(=O)O
dose: 5.0 mg/kg/injection
  T/C: 109 % of control and 116 % of control
dose: 10.0 mg/kg/injection
  T/C: 113 % of control
dose: 20.0 mg/kg/injection
  T/C: 118 % of control
